Data on one compound can be found in patent US20150157036A1, “Processed Cheese With Natural Antibacterial And Antimycotic Components And Method Of Manufacturing” (KRAFT FOODS GROUP BRANDS LLC, priority 2013, published 2015).

The test system of data set [1] is mold cocktail of Phoma spp., Geotrichum spp., Cladosporium spp., and Penicillium spp. Briefly: Mold challenge study of processed cheese slices inoculated with a mold cocktail. It counts as cell-based. The protocol: In some approaches, the processed cheese includes an amount of natural antimycotic effective to prevent mold growth for at least about three months, in another aspect at least about four months, in another aspect at least about five months, in another aspect at least about six months, and in yet another aspect at least about seven months, when the processed cheese is stored at about 1 to about 10° C. The efficacy of the natamycin in the processed cheese product can be determined by conducting a mold challenge study, where samples of the processed cheese are inoculated with a known quantity of mold spores, such as 90 cfu/g or 500 cfu/g, and inspecting the samples for visible mold growth during storage at 40 to 45° F.
Natamycin (Natamax SF from Danisco) was incorporated into processed cheese (prior to the cooking step) at concentrations of 7 ppm and 15 ppm. The processed cheese was then submitted to a mold challenge study. The processed cheese was inoculated with a mold cocktail (spores in liquid media) of Phoma spp., Geotrichum spp., Cladosporium spp., and Penicillium spp. (which represent common types of mold) at 90 spores per 19 gram slice. The samples are inoculated by spreading the cocktail on top of cheese slices. A control was not inoculated. […] The detectable level of natamycin was determined by HPLC. […]

Data set [2] is described as follows: Detectable level of natamycin in processed cheese by HPLC during storage. The class given is physicochemical. The conditions noted are these: for detectable natamycin concentration in the product: by six months, stored at 45° F.; for natamycin in processed cheese, on average: three days after producing the processed cheese, four samples. As for the experimental part:
Natamycin (Natamax SF from Danisco) was incorporated into processed cheese (prior to the cooking step) at 15 ppm. Cultured dairy component containing nisin was incorporated into all products at 8 percent based on the total weight of the processed cheese. Samples of the processed cheese were inoculated at 100 cfu/g and 500 cfu/g. The detectable level of natamycin was determined by HPLC.

The subject of a further data set is mold. Briefly: Shelf life of processed cheese slices, visible mold during storage. The class given is cell-based. The conditions noted are these: processed cheese slices containing about 4.8 ppm natamycin; stored at 45° F.; control without natamycin showed visible mold at three months. The text has this:
Processed cheese slices were produced containing about 4.8 ppm natamycin (Natamax SF from Danisco).

Where [3] appears, read: average of samples, dosage level 15 ppm, storage at 45° F.
Where [4] appears, read: dosage level 15 ppm before cooking, 8 percent cultured dairy component containing nisin, storage at 45° F., HPLC, single samples.

Several values for one entry are separate records, joined by “and”; a condition that tells them apart may be missing. Equal values may be shown once.

As for `C[C@@H]1C/C=C/C=C/C=C/C=C/[C@H](O[C@@H]2O[C@H](C)[C@@H](O)[C@H](N)[C@@H]2O)C[C@@H]2O[C@](O)(C[C@@H](O)C[C@H]3O[C@@H]3/C=C/C(=O)O1)C[C@H](O)[C@H]2C(=O)O` [Natamycin, natamycin], the “shelf life relative to control” value in data set [1] (10 ppm and 15 ppm natamycin plus 8 percent cultured dairy component containing nisin, inoculated with 500 cfu/g or 9,500 spores per slice) is listed as “almost double that of control”. Also, the “extension of shelf life versus control that lacked mold inhibitor” value in data set [1] (processed cheese with 7 ppm or 15 ppm natamycin added before cooking, 90 spores per 19 gram slice, stored at 45° F.) is “at least six months longer than a control”. Besides, the “detectable natamycin concentration in the product” value in data set [2] (7 ppm sample, HPLC) came out at 0.62 ppm. In addition, the “detectable natamycin concentration in the product” value in data set [2] (15 ppm sample, HPLC) is recorded as 4.89 ppm. In data set [2] (setting [3]), the “Detected Natamycin Concentration (ppm) after Four Months, average” value is “Average = 3.39 ppm”; the “Detected Natamycin Concentration (ppm) after One Week, average” value was “Average = 4.68 ppm”; the “Detected Natamycin Concentration (ppm) after Two Months, average” value is given as “Average = 5.93 ppm”. Also, in data set [2] (setting [4]), the “Detected Natamycin Concentration (ppm) after Four Months” value is 3.07 ppm and 3.39 ppm and 3.64 ppm and 2.97 ppm and 3.37 ppm and 3.28 ppm and 3.14 ppm; the “Detected Natamycin Concentration (ppm) after One Week” value is 4.61 ppm and 4.63 ppm and 4.80 ppm; the “Detected Natamycin Concentration (ppm) after Three Months” value was 6.87 ppm and 6.34 ppm and 7.46 ppm and 6.13 ppm and 6.84 ppm and 6.78 ppm and 7.36 ppm; the “Detected Natamycin Concentration (ppm) after Two Months” value was 6.73 ppm and 4.62 ppm and 6.32 ppm and 5.34 ppm and 5.91 ppm and 6.81 ppm and 5.67 ppm. Moreover, the “change of the detectable quantity of natamycin during storage” value in data set [2] (processed cheese with natamycin and cultured dairy component, HPLC) was “increase in months 2 and 3 of storage and then decrease in month 4”. The “natamycin in processed cheese, on average” value in data set [2] (starting with 10 ppm, 8 percent cultured dairy component containing nisin) came to 2.8 ppm. Also, the “natamycin in processed cheese, on average” value in data set [2] (starting with 15 ppm, 8 percent cultured dairy component containing nisin) stood at 4.9 ppm. Moreover, the “visible mold at five months of shelf life” value in the data set with mold is “no visible mold”.
